Measurements published in US4337249A, “Modulators of the complement system” (American Cyanamid Company, priority 1981, dated 1982).
Structures can show the parent of a compound that is named as a salt.

Columns and labels:
activated human C1 = target: T1, activated human C1 (Homo sapiens, UniProt P09871); assay: Test Code 026 (C1 inhibitor); type: biochemical; conditions: serial twofold dilution assay; higher well number indicates higher activity; protection of human C2 from C1 in presence of C4
T1 sequence (P09871 438-688 limits assumed): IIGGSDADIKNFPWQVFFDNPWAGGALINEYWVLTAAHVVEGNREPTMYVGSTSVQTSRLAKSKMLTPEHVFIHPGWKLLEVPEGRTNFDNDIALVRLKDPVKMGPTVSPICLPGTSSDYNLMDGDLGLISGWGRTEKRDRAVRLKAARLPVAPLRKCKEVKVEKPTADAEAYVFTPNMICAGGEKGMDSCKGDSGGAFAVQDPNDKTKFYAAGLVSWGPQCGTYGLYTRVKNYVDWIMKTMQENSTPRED
T1 sequence (P09871 16-437 limits assumed): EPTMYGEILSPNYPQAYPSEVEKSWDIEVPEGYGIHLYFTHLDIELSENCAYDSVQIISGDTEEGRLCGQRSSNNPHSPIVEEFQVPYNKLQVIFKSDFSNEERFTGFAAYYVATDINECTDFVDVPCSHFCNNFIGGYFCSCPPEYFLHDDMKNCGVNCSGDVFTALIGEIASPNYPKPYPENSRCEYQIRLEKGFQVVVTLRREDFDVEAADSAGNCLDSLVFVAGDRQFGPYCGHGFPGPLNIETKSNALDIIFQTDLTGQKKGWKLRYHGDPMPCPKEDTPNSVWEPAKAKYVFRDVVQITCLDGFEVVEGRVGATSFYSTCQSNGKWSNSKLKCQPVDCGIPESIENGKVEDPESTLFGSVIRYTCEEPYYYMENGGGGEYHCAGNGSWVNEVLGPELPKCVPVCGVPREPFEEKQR
Description: (§1) An active inhibitor protects C2 from C1 and C4; (ii) Cap 50 Test Here, appropriate amounts of the test compound are added to a pool of guinea pig serum in vitro, after which the undiluted serum capillary tube assay of U.S. Pat. No. 3,876,376 is run. The concentration of compound inhibiting 50% is reported; and (iii) Guinea Pig Intraperitoneal Test (GPIP)--Guinea pigs weighing about 300 g are dosed intraperitoneally (i.p.) with 200 mg kg of the test compound dissolved in saline and adjusted to pH 7-8. Approximately 0.4 ml blood samples, taken by orbital sinus puncture 2 hours and 6 hours after injections, are collected directly into centrifuge tubes; 5 ml blood samples, taken by decapitation 24 hours after injection, are collected directly into beakers. The samples are allowed to clot, centrifuged, and the resultant sera are assayed for complement activity using the capillary complement assay. Percent inhibition are calculated by comparison with simultaneous controls. The results of the GPIP appear in Table I together with results of Test Code 026 and Cap 50.

[1] = system: complement in pool of guinea pig serum; assay: Cap 50 Test (undiluted serum capillary tube assay); type: biochemical
Description: as §1

[2] = system: serum complement activity; assay: Guinea Pig Intraperitoneal Test (GPIP); type: in vivo; conditions: 200 mg kg i.p., versus simultaneous controls
Description: as §1

In vitro Activity C1 026 Wells (activated human C1): 8 (9) Wells
SMILES: O=C(C=Cc1ccc(OS(=O)(=O)O)c(OS(=O)(=O)O)c1)N[C@@H]1O[C@H](COS(=O)(=O)O)[C@@H](O[C@H]2O[C@H](COS(=O)(=O)O)[C@@H](OS(=O)(=O)O)[C@H](OS(=O)(=O)O)[C@H]2OS(=O)(=O)O)[C@H](OS(=O)(=O)O)[C@H]1OS(=O)(=O)O [N-(4-O-α-D-Glucopyranosyl-β-D-glucopyranosyl)-3,4-dihydroxycinnamamide, nonakis (H-sulfate), (nonaester), nonasodium salt]
In vitro Activity Cap 50 (concentration of compound inhibiting 50%) [1]: 304
In vivo Activity (Guinea pig % Inhibition) Intraperitoneal, 2 hours ([2]; serum 2 hours after injection): 63 % Inhibition
In vivo Activity (Guinea pig % Inhibition) Intraperitoneal, 6 hours ([2]; serum 6 hours after injection): 17 % Inhibition
In vivo Activity (Guinea pig % Inhibition) Intraperitoneal, 24 hours ([2]; serum 24 hours after injection): 2 % Inhibition
